Measurements taken from BindingDB's records for doi:10.1021/jm00042a004 (College of Pharmacy, 1994).
pIC50: −log10 of the molar value.

Key:
[1] = target: Reverse transcriptase/RNase H (HIV-1); experiment: The 50% inhibitory concentration was measured as inhibition of DNA-dependent DNA polymerase activity
[2] = target: Reverse transcriptase/RNase H (HIV-1); experiment: The 50% inhibitory concentration was measured as inhibition of RNA-dependent DNA polymerase activity

O=C(Oc1cc(S(=O)(=O)O)cc2cc(S(=O)(=O)O)ccc12)c1ccc(-c2ccc(C(=O)Oc3cc(S(=O)(=O)O)cc4cc(S(=O)(=O)O)ccc34)cc2)cc1 [Biphenyl-4,4'-dicarboxylic acid bis-(3,6-disulfo-naphthalen-1-yl) ester]
pIC50 [1]: 5.16 | pIC50 [2]: 5.47

O=S(=O)(O)c1ccc2c(OS(=O)(=O)c3cccc4c(S(=O)(=O)Oc5cc(S(=O)(=O)O)cc6cc(S(=O)(=O)O)ccc56)cccc34)cc(S(=O)(=O)O)cc2c1 [4-[5-(3,6-disulfo-1-naphthyloxysulfonyl)-1-naphthylsulfonyloxy]-2,7-naphthalenedisulfonic acid]
pIC50 [1]: 4.04 | pIC50 [2]: 5.37

CCCCCCCCCCCCCCCC(=O)Nc1ccc(S(=O)(=O)O)c2cccc(S(=O)(=O)O)c12 [4-Hexadecanoylamino-naphthalene-1,5-disulfonic acid]
pIC50 [1]: 5.17 | pIC50 [2]: 5.80

CCCCCCCCCCCCCCCC(=O)Nc1c(O)cc(S(=O)(=O)O)c2ccccc12 [4-Hexadecanoylamino-3-hydroxy-naphthalene-1-sulfonic acid]
pIC50 [2]: 5.49
